Source: BindingDB's records for PubMed 36327695 (n/a, 2022)

How the values were obtained:
Maltase-glucoamylase [1] = target: T1, Maltase-glucoamylase (Homo sapiens, UniProt O43451); assay: Inhibition of alpha-glucosidase (unknown origin) using pNPG as substrate preincubated with enzyme for 15 mins followed by substrate addition and measured after 10 mins by microplate reader analysis
Maltase-glucoamylase [2] = target: T1, Maltase-glucoamylase; assay: Non-competitive inhibition of alpha-glucosidase (unknown origin) using pNPG as substrate preincubated with enzyme for 15 mins followed by substrate addition and measured for 15 mins by Dixon plot analysis

T1 sequence (O43451 whole entry): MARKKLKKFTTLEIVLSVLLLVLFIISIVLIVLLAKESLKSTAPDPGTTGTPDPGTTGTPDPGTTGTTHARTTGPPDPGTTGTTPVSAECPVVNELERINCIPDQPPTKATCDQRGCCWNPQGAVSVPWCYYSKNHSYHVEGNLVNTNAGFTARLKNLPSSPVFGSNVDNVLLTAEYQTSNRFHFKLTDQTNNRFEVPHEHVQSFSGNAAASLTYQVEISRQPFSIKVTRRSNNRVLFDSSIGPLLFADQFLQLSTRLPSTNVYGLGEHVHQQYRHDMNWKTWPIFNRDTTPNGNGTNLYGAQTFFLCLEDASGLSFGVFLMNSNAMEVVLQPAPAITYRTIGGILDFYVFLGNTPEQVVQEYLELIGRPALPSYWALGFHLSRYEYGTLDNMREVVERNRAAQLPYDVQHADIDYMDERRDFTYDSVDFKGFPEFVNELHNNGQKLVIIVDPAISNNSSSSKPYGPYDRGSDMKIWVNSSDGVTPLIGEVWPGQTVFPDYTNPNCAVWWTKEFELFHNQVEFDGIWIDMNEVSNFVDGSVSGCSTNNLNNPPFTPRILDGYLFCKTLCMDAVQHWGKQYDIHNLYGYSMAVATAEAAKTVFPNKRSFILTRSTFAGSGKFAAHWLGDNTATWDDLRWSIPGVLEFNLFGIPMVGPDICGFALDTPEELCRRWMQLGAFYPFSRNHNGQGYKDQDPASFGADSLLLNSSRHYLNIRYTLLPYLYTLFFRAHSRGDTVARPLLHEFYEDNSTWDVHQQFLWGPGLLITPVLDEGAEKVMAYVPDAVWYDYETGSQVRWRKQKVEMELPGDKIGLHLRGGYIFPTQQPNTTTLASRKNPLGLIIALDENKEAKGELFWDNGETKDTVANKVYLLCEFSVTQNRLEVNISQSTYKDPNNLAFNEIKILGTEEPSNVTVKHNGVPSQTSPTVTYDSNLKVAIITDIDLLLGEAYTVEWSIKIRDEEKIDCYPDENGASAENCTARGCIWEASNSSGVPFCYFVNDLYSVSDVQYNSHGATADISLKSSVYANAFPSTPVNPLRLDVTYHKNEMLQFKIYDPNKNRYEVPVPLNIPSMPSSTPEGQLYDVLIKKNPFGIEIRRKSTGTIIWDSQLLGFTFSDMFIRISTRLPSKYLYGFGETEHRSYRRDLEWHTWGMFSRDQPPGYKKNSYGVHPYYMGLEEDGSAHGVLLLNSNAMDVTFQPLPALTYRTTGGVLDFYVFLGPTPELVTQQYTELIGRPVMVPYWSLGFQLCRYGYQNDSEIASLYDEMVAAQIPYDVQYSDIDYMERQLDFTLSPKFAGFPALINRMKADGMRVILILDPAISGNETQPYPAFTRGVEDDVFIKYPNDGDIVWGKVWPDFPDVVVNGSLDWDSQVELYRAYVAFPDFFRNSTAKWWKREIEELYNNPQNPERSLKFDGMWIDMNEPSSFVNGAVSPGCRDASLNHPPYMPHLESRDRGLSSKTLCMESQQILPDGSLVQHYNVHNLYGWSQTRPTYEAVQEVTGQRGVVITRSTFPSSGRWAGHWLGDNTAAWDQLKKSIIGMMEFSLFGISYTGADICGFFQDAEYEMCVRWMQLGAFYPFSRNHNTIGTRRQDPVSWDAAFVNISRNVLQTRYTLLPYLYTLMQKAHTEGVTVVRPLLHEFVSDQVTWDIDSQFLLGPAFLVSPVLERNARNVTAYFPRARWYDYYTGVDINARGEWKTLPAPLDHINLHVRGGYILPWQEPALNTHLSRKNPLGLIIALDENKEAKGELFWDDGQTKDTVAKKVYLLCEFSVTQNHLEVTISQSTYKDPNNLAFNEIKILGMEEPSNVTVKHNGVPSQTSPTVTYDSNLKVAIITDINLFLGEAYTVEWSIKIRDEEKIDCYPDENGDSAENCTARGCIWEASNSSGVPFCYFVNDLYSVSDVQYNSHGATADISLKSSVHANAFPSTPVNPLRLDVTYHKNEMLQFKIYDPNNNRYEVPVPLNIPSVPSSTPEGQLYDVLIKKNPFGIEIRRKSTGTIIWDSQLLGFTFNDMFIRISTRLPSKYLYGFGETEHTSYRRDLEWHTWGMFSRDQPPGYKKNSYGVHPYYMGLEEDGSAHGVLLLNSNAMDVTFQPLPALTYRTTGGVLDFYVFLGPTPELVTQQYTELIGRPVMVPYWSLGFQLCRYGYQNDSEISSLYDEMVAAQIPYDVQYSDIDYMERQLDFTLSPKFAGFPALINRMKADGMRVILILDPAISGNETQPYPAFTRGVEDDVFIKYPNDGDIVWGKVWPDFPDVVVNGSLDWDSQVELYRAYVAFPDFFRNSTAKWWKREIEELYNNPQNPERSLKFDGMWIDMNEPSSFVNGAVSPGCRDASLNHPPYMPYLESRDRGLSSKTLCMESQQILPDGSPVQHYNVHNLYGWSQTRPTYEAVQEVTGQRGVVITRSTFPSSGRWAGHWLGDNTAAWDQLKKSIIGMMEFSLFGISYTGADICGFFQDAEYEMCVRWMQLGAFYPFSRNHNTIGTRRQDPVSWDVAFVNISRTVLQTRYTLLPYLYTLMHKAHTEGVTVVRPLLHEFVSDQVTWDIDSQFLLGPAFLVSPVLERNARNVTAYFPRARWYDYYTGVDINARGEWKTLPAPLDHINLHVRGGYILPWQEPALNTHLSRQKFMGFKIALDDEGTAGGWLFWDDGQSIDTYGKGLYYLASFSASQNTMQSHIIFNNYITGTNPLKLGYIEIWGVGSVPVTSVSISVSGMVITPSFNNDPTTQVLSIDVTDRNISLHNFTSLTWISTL

Row | IC50 (Maltase-glucoamylase [1]) [µM] | Ki (Maltase-glucoamylase [2]) [µM] | SMILES
1 | 23.5 |  | C=CCc1cc(-c2ccc(O)c(CC=C)c2)c(O)c(C(c2cc(Cl)cc(Cl)c2)N2CCCCC2)c1 (configuration not stated)
2 | 14.9 | 1.7 | C=CCc1cc(-c2ccc(O)c(CC=C)c2)c(O)c(C(c2cc(Cl)cc(Cl)c2)N2CCC(C)CC2)c1 (configuration not stated)
3 | 13.8 | 3.27 | C=CCc1cc(-c2ccc(O)c(CC=C)c2)c(O)c(C(c2cc(Cl)cc(Cl)c2)N2CCOCC2)c1 (configuration not stated)
4 | 30.4 |  | C=CCc1cc(-c2ccc(O)c(CC=C)c2)c(O)c(C(c2ccc(OC)cc2)N2CCCCC2)c1 (configuration not stated)
5 | 18.6 |  | C=CCc1cc(-c2cc(CC=C)c(O)c(C(c3ccc(Cl)cc3)N3CCOCC3)c2)c(O)c(C(c2ccc(Cl)cc2)N2CCOCC2)c1 (configuration not stated)
